In patent publication US20220072013A1, “Pharmaceutical Combinations for the Treatment of Cancer” (CA*TX, Inc., priority 2018, published 2022):
Entries after “also recorded” stand apart in the source; their conditions may differ.

How the values were obtained:
[1] = tested on: HT29 (APC mutant) cells; assay: DNA methylation (epigenetic) profiling of HT29 cells; type: cell-based, human
Procedure: FIG. 5 illustrates that Budesonide increases DNA methylation in human CRC cells. To determine if Budesonide increases DNA methylation in human CRC cells, epigenetic profiling was done on HT29 (APC mutant) cells in response to Budesonide exposure. […] A statistically significant shift in CpG methylation occurred at 235 unique CpG sites (out of 1.9 M that were analyzed).

[2] = tested on: global DNA methylation of adenomas in Apc^Min/+ mice; assay: Anti-5-methylcytidine immunostaining of small intestine adenomas (global DNA methylation); type: in vivo
[3] = tested on: intestinal tumors in Apc^Min/+ mice; assay: Intestinal tumor development in Apc^Min/+ mice given drug-containing diets; type: in vivo; conditions: for decrease in tumor number: analyzed at 12 weeks; for change in tumor size: started before adenoma development (age 4 to 12 weeks)
Procedure: FIG. 1 illustrates the decrease in the number of intestinal tumors in Apc^Min/+ mice given Budesonide- or Sulindac-containing diets for 8 or 4 weeks (from age 4 weeks to age 12 weeks or age 8 weeks to age 12 weeks); bars show % change in tumor number compared to untreated C57BL/6 control mice.
FIG. 2 illustrates the change in size of intestinal tumors in Apc^Min/+ mice that were administered Budesonide- or Sulindac containing diets for 8 or 4 weeks (from age 4 weeks to age 12 weeks or age 8 weeks to age 12 weeks); bars show % change in tumor size compared to untreated C57BL/6 control mice.
Budesonide, a steroidal anti-inflammatory drug active against lung cancer development, was investigated as a drug for CRC. Budesonide was evaluated using the murine model for hereditary CRC (FAP) in humans—Apc^Min/+ mice—which, like FAP patients, carry a germline Apc mutation and which spontaneously develop multiple intestinal tumors. The effects of Budesonide were compared to Sulindac as the “gold standard” for an NSAID drug known to inhibit tumor development in Apc^Min mice. The Apc^Min/+ and control mice (C57BL6) were given Budesonide- or Sulindac-containing diets starting at 4 or 8 weeks of age (corresponding, respectively, to ages before and after intestinal tumor development). At 12 weeks, mice were sacrificed and intestines analyzed for adenomas. […] Without wishing to be bound by any particular theory, it is concluded that Budesonide has strong activity against the development of multiple tumors that would otherwise be induced by a variety of Apc mutations (combinations of inherited 1st hit and acquired 2nd hits), and also regression of many tumors after they had already developed.

[4] = tested on: survivin; assay: Survivin mRNA and protein expression in HT-29 cells (RT-PCR, western blot); type: cell-based, human; conditions: Sulindac 200 μM
Procedure: RNA and protein expression were measured by RT-PCR and western blot, respectively. FIGS. 3A and 3B show an ethidium bromide-stained gel and graph of quantified data for survivin and Bcl-2 mRNA expression. FIGS. 3C and 3D show a western blot and graph of quantified data for survivin and Bcl-2 protein expression.
Another mechanism attributed to Sulindac's antitumor effects is its ability to induce apoptosis and decrease cell proliferation. This mechanism appears to involve a COX-independent mechanism whereby Sulindac (and other NSAIDs) induce degradation of beta-catenin, inactivation of Tcf-4, reduced expression of an anti-apoptotic protein (survivin; FIG. 3) and increased apoptosis in human CRC cells. […] To that end, survivin and Bcl-2 expression was evaluated in HT-29 cells that were treated with Sulindac (200 μM). RNA and protein expression were measured by RT-PCR and western blot, respectively. FIGS. 3A and 3B show an ethidium bromide-stained gel and graph of quantified data for survivin and Bcl-2 mRNA expression.

[5] = tested on: HT29 CRC cells; assay: Apoptosis in HT29 CRC cells; type: cell-based, human
[6] = diet started at 4 weeks of age, prior to establishment of intestinal adenomas
[7] = diet started at 8 weeks of age, after adenoma development

Row | SMILES | 1 MB domains across the genome showing an increase in methylation versus control ([1]; Budesonide exposure) | unique CpG sites with statistically significant shift in CpG methylation ([1]; out of 1.9 M sites analyzed) | 5-methylcytidine immunostaining signal intensity, increase [2] | proportion of cells staining positive for 5-methylcytidine [2] | decrease in tumor number [3, 6] | decrease in tumor number [3, 7] | change in tumor size [3] | survivin expression [4] | apoptosis [5]
1 | CCCC1O[C@@H]2C[C@H]3[C@@H]4CCC5=CC(=O)C=C[C@]5(C)[C@H]4[C@@H](O)C[C@]3(C)[C@]2(C(=O)CO)O1 (stereo partly drawn) [Budesonide, budesonide] | 69.3% | 235 | 1.9 fold | increase | 88% | 60% | decreased |  | 
2 | CC1=C(CC(=O)O)c2cc(F)ccc2/C1=C\c1ccc([S+](C)[O-])cc1 (stereo not drawn) [Sulindac] |  |  |  |  | 90% | 90% | decreased | monotonic decrease; also recorded: attenuates expression | induces apoptosis
